Results on ten compounds are retold here after patent US8772489B2, “Optically active 2-hydroxy tetrahydrothienopyridine derivatives, preparation method and use in manufacture of medicament thereof” (Jiangsu Vcare PharmaTech Co. Ltd., priority 2010, dated 2014).

Where “and” joins values, the source holds several entries; their conditions need not be identical. Equal entries are not always repeated. Where two headings read alike, the source gives them in different places.

Data set [1] can be described thus: Pharmacokinetics and bioavailability of Compound I-2 in rats (plasma Compound IV-1 by LC-MS/MS). To be noted: for Concentration of Compound IV-1 in plasma, single animals / concentration at 0.08 h / concentration at 0.167 h / concentration at 0.5 h / concentration at 1 h / concentration at 2 h / concentration at 4 h / concentration at 6 h: intravenous injection 8 μmol/kg; for concentration at 0.08 h / concentration at 0.167 h / concentration at 0.5 h / concentration at 1 h / concentration at 2 h / concentration at 4 h / concentration at 6 h: 8 μmol/kg. In kind it is in vivo, rat. The text has this: The rats were fasted overnight, but allowed free access to water.

A further data set concerns platelet aggregation. As to the kind of experiment: animal or person. The settings on record: Rattus norvegicus, read-out: Aggregation inhibition (%). Type of data set: in vivo. The text has this: The positive control and the test compounds (prepared in the above examples) were formulated in 0.5% CMC-Na (carboxymethylcellulose sodium) into suspensions for administration to animals.
Animals: male SD rats, weighed about 250 g, and supplied by Shanghai Super-B&K Laboratory Animal Corp. Ltd. Animal certificate No.: 2008001605451, and license No.: SCXK (Hu); SCXK (Hu) 2008-0016.
Instruments: a centrifuge (80-2 bench top low-speed centrifuge), an automatic platelet aggregation tester (STELLEXLG-PAPER-I platelet coagulation/aggregation analyzer), and others.
Methods: the pharmacological activity test of the compounds of the present invention for platelet aggregation was performed following Born's turbidimetric method (Nature, 1962, 194(4832): 927). An agglomeration-promoting substance, adenosine diphosphate (ADP), was added to a platelet rich plasma (PRP), and stirred to allow platelets to aggregate. […] This experiment can be used to evaluate the platelet aggregation effect induced by the test compounds administrated in-vivo or in-vitro.
The PRP was adjusted with a platelet poor plasma (PPP) to maintain the platelet counts at […]. The PRP was taken into a test cup, and incubated at 37° C. for 10 min. Light transmission was adjusted to 0% with PRP and to 100% with PPP for each measurement. By using ADP (with a final concentration of 5 μM) as an inducer, the platelet aggregation percentages were measured through the turbidimetric method using a platelet aggregation tester, and statistically compared by t-test. The platelet aggregation inhibition was calculated by the equation: platelet aggregation inhibition (%)=[1−(aggregation percent in dosed tube/aggregation percent in control tube)]×100%.

[2] abbreviates: SD rats, intravenous injection 8 μmol/kg (2.7 mg/kg), individual animal.
Setting [3] is: male SD rats, oral gavage 3 mg/kg, blood after 2 hrs, ADP 5 μM.

For the compound `COC(=O)[C@H](c1ccccc1Cl)N1CCC2SC(=O)C=C2C1` (stereo partly drawn) [IV-1, (2S)-Methyl 2-(2-oxo-7,7a-dihydrothieno[3,2-c]pyridin-5 (2H,4H,6H)-yl)-2-(2-chlorophenyl)-acetate], in data set [1] (setting [2]), the “AUC0-t of Compound IV-1, single animals” value was 304 ng·h/mL and 229 ng·h/mL. The “AUC0-∞ of Compound IV-1, single animals” value in data set [1] (setting [2]) was 306 ng·h/mL and 229 ng·h/mL. The “CLtot of Compound IV-1, single animals” value in data set [1] (setting [2]) is 147 mL/min/kg and 197 mL/min/kg. Besides, the “Cmax of Compound IV-1, single animals” value in data set [1] (setting [2]) was 785 ng/mL and 533 ng/mL. In addition, in data set [1] (setting [2]), the “V2 of Compound IV-1, single animals” value was 18.8 L/kg and 15.9 L/kg and 10.9 L/kg. The “t1/2 of Compound IV-1, single animals” value in data set [1] (setting [2]) was 78 min and 75 min and 38.6 min. In addition, the “V2 of Compound IV-1, Mean” value in data set [1] (SD rats, intravenous injection 8 μmol/kg (2.7 mg/kg), mean of 3) is 15.2 L/kg. The “Concentration of Compound IV-1 in plasma, single animals” value in data set [1] (SD rats, 0.08 h, individual animal) was 785 ng/mL and 533 ng/mL; in data set [1] (SD rats, 0.167 h, individual animal) it was 417 ng/mL and 311 ng/mL; in data set [1] (SD rats, 0.5 h, individual animal), 129 ng/mL and 107 ng/mL; in data set [1] (SD rats, 1 h, individual animal) it was 49.3 ng/mL and 37.3 ng/mL; in data set [1] (SD rats, 2 h, individual animal), 9.06 ng/mL and 9.74 ng/mL; in data set [1] (SD rats, 4 h, individual animal), 2.87 ng/mL and 2.02 ng/mL. Further, the “Concentration of Compound IV-1 in plasma, single animals” value in data set [1] (SD rats, 6 h, individual animal) is 0.977 ng/mL and 1.06 ng/mL. Further, the AUC(0-t) in data set [1] (male, SD, rat, plasma, iv, 2.7 mg/kg, intravenous injection 8 μmol/kg (2.7 mg/kg), individual animal, read-out: AUC0-t of Compound IV-1, single animals) was 266 ng·h/mL; in data set [1] (male, Sprague-Dawley, rat, plasma, iv, 8 umol/kg, SD rats, intravenous injection 8 μmol/kg (2.7 mg/kg), mean of 3, read-out: AUC0-t of Compound IV-1, Mean), 266 ± 37.6 ng·h/mL. In addition, the AUC(0-inf) in data set [1] (male, SD, rat, plasma, iv, 2.7 mg/kg, intravenous injection 8 μmol/kg (2.7 mg/kg), individual animal, read-out: AUC0-∞ of Compound IV-1, single animals) was 269 ng·h/mL; in data set [1] (male, Sprague-Dawley, rat, plasma, iv, 8 umol/kg, SD rats, intravenous injection 8 μmol/kg (2.7 mg/kg), mean of 3, read-out: AUC0-∞ of Compound IV-1, Mean) it was 268 ± 38.3 ng·h/mL. The clearance in data set [1] (male, SD, rat, plasma, iv, 2.7 mg/kg, intravenous injection 8 μmol/kg (2.7 mg/kg), individual animal, read-out: CLtot of Compound IV-1, single animals (converted)) was 167 mL/min/kg; in data set [1] (male, SD, rat, plasma, iv, 2.7 mg/kg, intravenous injection 8 μmol/kg (2.7 mg/kg), mean of 3, read-out: CLtot of Compound IV-1, Mean (converted)), 170 mL/min/kg. Moreover, the Cmax (in general, the peak of the concentration-time curve) in data set [1] (male, SD, rat, plasma, iv, 2.7 mg/kg, intravenous injection 8 μmol/kg (2.7 mg/kg), individual animal, read-out: Cmax of Compound IV-1, single animals) was determined as 696 ng/mL; in data set [1] (male, Sprague-Dawley, rat, plasma, iv, 8 umol/kg, SD rats, intravenous injection 8 μmol/kg (2.7 mg/kg), mean of 3, read-out: Cmax of Compound IV-1, Mean) it was 671 ± 128 ng/mL. Besides, the time of peak concentration (Tmax) (usually the time at which the peak concentration occurs) in data set [1] (male, Sprague-Dawley, rat, plasma, 8 umol/kg, SD rats, intravenous injection 8 μmol/kg (2.7 mg/kg), mean of 3, read-out: Tmax of Compound IV-1, Mean) amounted to 4.98 min; in data set [1] (male, rat, plasma, SD rats, intravenous injection 8 μmol/kg (2.7 mg/kg), individual animal, read-out: Tmax of Compound IV-1, single animals) it was 4.98 min. Further, the half-life in data set [1] (male, Sprague-Dawley, rat, plasma, iv, 8 umol/kg, SD rats, intravenous injection 8 μmol/kg (2.7 mg/kg), mean of 3, read-out: t1/2 of Compound IV-1, Mean (converted)) is 63.6 ± 21.8 min. Further, the concentration at 0.08 h in data set [1] (male, Sprague-Dawley, rat, plasma, iv, SD rats, 0.08 h, individual animal, read-out: Concentration of Compound IV-1 in plasma, single animals) turned out to be 696 ng/mL; in data set [1] (male, Sprague-Dawley, rat, plasma, iv, SD rats, 0.08 h, mean of 3, read-out: Concentration of Compound IV-1 in plasma, Mean), 671 ng/mL. Besides, the concentration at 0.167 h was 317 ng/mL in data set [1] (male, Sprague-Dawley, rat, plasma, iv, SD rats, 0.167 h, individual animal, read-out: Concentration of Compound IV-1 in plasma, single animals) and 348 ng/mL in data set [1] (male, Sprague-Dawley, rat, plasma, iv, SD rats, 0.167 h, mean of 3, read-out: Concentration of Compound IV-1 in plasma, Mean). Also, the concentration at 0.5 h in data set [1] (male, Sprague-Dawley, rat, plasma, iv, SD rats, 0.5 h, individual animal, read-out: Concentration of Compound IV-1 in plasma, single animals) came to 108 ng/mL; in data set [1] (male, Sprague-Dawley, rat, plasma, iv, SD rats, 0.5 h, mean of 3, read-out: Concentration of Compound IV-1 in plasma, Mean), 115 ng/mL. In addition, the concentration at 1 h in data set [1] (male, Sprague-Dawley, rat, plasma, iv, SD rats, 1 h, individual animal, read-out: Concentration of Compound IV-1 in plasma, single animals) is 51 ng/mL; in data set [1] (male, Sprague-Dawley, rat, plasma, iv, SD rats, 1 h, mean of 3, read-out: Concentration of Compound IV-1 in plasma, Mean) it was 45.9 ng/mL. The concentration at 2 h in data set [1] (male, Sprague-Dawley, rat, plasma, iv, SD rats, 2 h, individual animal, read-out: Concentration of Compound IV-1 in plasma, single animals) was 10.9 ng/mL; in data set [1] (male, Sprague-Dawley, rat, plasma, iv, SD rats, 2 h, mean of 3, read-out: Concentration of Compound IV-1 in plasma, Mean) it was 9.9 ng/mL. The concentration at 4 h in data set [1] (male, Sprague-Dawley, rat, plasma, iv, SD rats, 4 h, individual animal, read-out: Concentration of Compound IV-1 in plasma, single animals) was 3.94 ng/mL; in data set [1] (male, Sprague-Dawley, rat, plasma, iv, SD rats, 4 h, mean of 3, read-out: Concentration of Compound IV-1 in plasma, Mean), 2.94 ng/mL. Moreover, the concentration at 6 h in data set [1] (male, Sprague-Dawley, rat, plasma, iv, SD rats, 6 h, individual animal, read-out: Concentration of Compound IV-1 in plasma, single animals) came to 1.29 ng/mL; in data set [1] (male, Sprague-Dawley, rat, plasma, iv, SD rats, 6 h, mean of 3, read-out: Concentration of Compound IV-1 in plasma, Mean), 1.11 ng/mL.
Consider `COC(=O)[C@H](c1ccccc1Cl)N1CCc2sc(OC(=O)OC(C)C)cc2C1` [Compound I-16, (S)-Methyl 2-(2-(isopropoxycarbonyloxy)-6,7-dihydrothieno[3,2-c]pyridin-5(4H)-yl)-2-(2-chlorophenyl)-acetate], for which the inhibition (usually how much of the control response was suppressed) at 3 mg/kg with platelet aggregation (setting [3]) was determined as 52.7%.
Same read-out and setting: in the case of `COC(=O)[C@H](c1ccccc1Cl)N1CCc2sc(OC(=O)C(C)(C)C)cc2C1` [Compound I-7, (S)-methyl 2-(2-pivaloyloxy-6,7-dihydrothieno[3,2-c]pyridin-5(4H)-yl)-2-(2-chlorophenyl)-acetate] it was 41.9%.
On the same count and under the same terms, the same measure for `CCC(=O)Oc1cc2c(s1)CCN([C@H](C(=O)OC)c1ccccc1Cl)C2` [Compound I-3, (S)-Methyl 2-(2-propanoyloxy-6,7-dihydrothieno[3,2-c]pyridin-5(4H)-yl)-2-(2-chlorophenyl)-acetate]: 38.4%.
Take `COC(=O)C(c1ccccc1Cl)N1CCc2sc(OC(C)=O)cc2C1` (racemic) [I-2″, (R,S)-Methyl 2-(2-acetoxy-6,7-dihydrothieno[3,2-c]pyridin-5(4H)-yl)-2-(2-chlorophenyl)-acetate]: in the data set on platelet aggregation (setting [3]), the inhibition at 3 mg/kg turned out to be 43.9%. Moreover, in the data set on platelet aggregation (male SD rats, oral gavage 10 mg/kg, blood after 2 hrs, ADP 5 μM), the inhibition at 10 mg/kg was determined as 78.5%.
For the compound `CCCC(=O)Oc1cc2c(s1)CCN([C@H](C(=O)OC)c1ccccc1Cl)C2` [Compound I-4, (S)-methyl 2-(2-butanoyloxy-6,7-dihydrothieno[3,2-c]pyridin-5 (4H)-yl)-2-(2-chlorophenyl)-acetate], the inhibition at 3 mg/kg in the data set with platelet aggregation (setting [3]) is 46.2%.
As for `COC(=O)[C@H](c1ccccc1Cl)N1CCc2sc(OC(=O)OCC(C)C)cc2C1` [Compound I-15, (S)-Methyl 2-(2-(isobutoxycarbonyloxy)-6,7-dihydrothieno[3,2-c]pyridin-5(4H)-yl)-2-(2-chlorophenyl)-acetate], in the data set with platelet aggregation (setting [3]), the inhibition at 3 mg/kg was determined as 45.3%.
Same read-out and setting: in the case of `COC(=O)[C@H](c1ccc(Cl)cc1)N1CCc2sc(OC(C)=O)cc2C1` [Compound I-20, (S)-Methyl 2-(2-acetoxy-6,7-dihydrothieno[3,2-c]pyridin-5(4H)-yl)-2-(4-chlorophenyl)-acetate] it was 17.6%.
With `COC(=O)C(c1ccccc1Cl)N1CCc2sc(OC(=O)N(C)C)cc2C1` (racemic) [I-18′, (R,S)-Methyl 2-(2-(N,N-dimethylcarbamoyloxy)-6,7-dihydrothieno[3,2-c]pyridin-5(4H)-yl)-2-(2-chlorophenyl)-acetate], the inhibition at 3 mg/kg in the data set on platelet aggregation (po, 2 h) came to 29.8%.
As to `COC(=O)[C@H](c1ccccc1F)N1CCc2sc(OC(C)=O)cc2C1` [Compound I-19, (S)-Methyl 2-(2-acetoxy-6,7-dihydrothieno[3,2-c]pyridin-5 (4H)-yl)-2-(2-fluorophenyl)-acetate], in the data set on platelet aggregation (setting [3]), the inhibition at 3 mg/kg was 63.5%.
